The test system of data set [1] is Farage cells. Description: ROS levels (CellROX) in Farage cells.
From the text: (§1) TMRE staining was used as readout. […] CellROX was used to evaluate ROS levels.
Data set [2] has as its system MFN1/MFN2 DKO MEFs. To be noted: 1 μM, 2 h.
Method: Mitochondrial respiration. Mitochondrial oxygen consumption rates (OCR) were assessed using a XF24 Analyzer (Seahorse Biosciences, Billerica Mass., USA). […] OCR was normalized to cell number or total protein content per well for each condition tested. […] Data are expressed as Mean±SEM, OCR from untreated control for each condition; using n=3-5 individual experiments with n=3-5 replicates for each group tested.
The subject of data set [3] is MEFs. Description: Caspase-3/7 activation assay in MEFs. The format is cell-based. The note with it: 5 μM, 24 h. Here is the method:
Cells (5×10^3 cells/well) were seeded in a 96-well white plate and treated with MASM7 (5 μM), doxorubicin (1 μM) or vehicle (0.05% DMSO). Caspase 3/7 activation was measured after 24 h by addition of the Caspase-Glo 3/7 chemiluminescence reagent according to the manufacturer's protocol (Promega). Luminescence was detected by a […] microplate reader (TECAN).

For data set [4], the system named is cancer cells. Description: Toxicity in cancer cells. The note with it: 15 μM, 72 h.
From the text: as §1
Data set [5] deals with MEFs. The data set can be described thus: TMRE mitochondrial membrane potential assay in MEFs. The format is cell-based. The note with it: 5 μM, 24 h. The procedure:
Carbonyl cyanide 3-chlorophenylhydrazone (CCP) was used as a positive control (20 μM, 40 min). Following treatments, cells were stained with 400 nM TMRE (Sigma Cat. 87917) for 20 min at 37° C. Subsequently, cells were washed with once with PBS. Fluorescence intensity was detected by a M100 microplate reader (TECAN, Ex: 540 nm/Em: 579 nm).

In data set [6] the test system is MFN1/MFN2 DKO MEFs reconstituted with WT, L727A and D725A/L727A MFN2. The note with it: L727A and D725A/L727A MFN2 vs WT.
Method: Evaluation of mitochondrial morphology using mitochondrial aspect ratio (Mito AR; length/width) as a readout. […] Mitotracker green stains mitochondria. Scale bar 20 μm. […] Quantification of Mito AR in MFN1/MFN2 DKO MEFs reconstituted with WT, L727A and D725A/L727A MFN2.
Live cell imaging. […] Images were taken with Leica SP5 inverted confocal microscope. Data were analyzed with Image J software. >200 mitochondria were measured per condition in mitochondrial aspect ratio.
The subject of data set [7] is lymphoma cells. The data set can be described thus: Viability of lymphoma cells.
From the text: as §1
The test system of data set [8] is Farage cells. Description: Caspase 3 activation in Farage cells.
From the text: as §1
Data set [9] relates to Farage cells. Description: TMRE mitochondrial membrane potential in Farage cells.
From the text: as §1
Data set [10] has as its system WT MEFs. Description: cells. The text has this: Next, it was visually examined if MASM7 could induce mitochondrial fusion in MEFs, using mitochondrial aspect ratio (mitochondrial length/width, reflecting fusion) as a readout. […] (FIG. 5).
Data set [11] concerns MEFs. The data set can be described thus: Cell viability assay (CellTiter-Glo) in MEFs. The note with it: 24 h. The format is cell-based. Here is the method:
Cells (5×10^3 cells/well) were seeded in a 96-well white plate and treated with serial dilutions of MASM7 or vehicle (0.1% DMSO). Cell viability was assayed after 24 h by addition of CellTiter-Glo reagent according to the manufacturer's protocol (Promega). Luminescence was measured using a F200 PRO microplate reader (TECAN). Viability assays were performed in at least triplicate and the data normalized to vehicle-treated control wells. Dilutions of MASM7 were performed using a TECAN D300e Digital Dispenser from 10 mM stocks.

The test system of data set [12] is WT MEFs. Description: Mitochondrial respiration (Seahorse OCR) in WT MEFs. To be noted: 1 μM, 2 h.
In data set [13] the test system is MEFs. The data set can be described thus: Staurosporine-induced apoptosis (active caspase 3) in MEFs. The format is cell-based. To be noted: co-treated with staurosporine (STS). The procedure: Transfected HEK 293T or MEFs were washed with once PBS and fixed with 2% PFA for 13 min. Subsequently, cells were blocked, then incubated for 1 h at room temperature with the primary antibody for ATP5B (Abcam; ab128743) or active caspase 3 (R&D Systems; AF835). After incubation with the primary antibody, cells were washed with PBS and incubated for 1 h at room temperature with the secondary antibody (ThermoFisher Scientific; A11010). […] Data were analyzed with Image J software.
Consistent with previous reports showing that inhibition of fission reduced apoptosis (8,12-14), the effect of MASM7 was evaluated upon a classic apoptotic stimulus such as staurosporine (STS) in MEFs.

For orientation: EC50 means the concentration giving half of the maximal effect. For the compound `CC(Sc1nnc(C2CC2)n1-c1ccccc1)C(=O)Nc1sc2c(c1C(N)=O)CCC2` (stereo not drawn) [MASM7], in data set [1], the “ROS levels in Farage cells (CellROX)” value is on record as “increases ROS levels”. Also, the “Basal and maximal OCR, MFN1/MFN2 DKO MEFs” value in [2] was “does not increase basal and maximal OCR”. In data set [3], the “Caspase 3/7 activation in MEFs” value was “did not induce caspase 3/7 activation”. The “Toxicity in the indicated cancer cells” value in data set [4] is listed as “low to moderate toxicity”. In data set [5], the “Mitochondrial membrane potential in MEFs (TMRE)” value is on record as “did not reduce viability or mitochondrial membrane potential”. For the same compound, the “MASM7-induced fusion (Mito AR) with HR2 domain mutations of Mfn2” value in data set [6] is listed as “inhibits MASM7-induced fusion”. The “Viability of lymphoma cells” value in data set [7] is given as “reduces viability selectively in lymphoma cells”. In data set [8], the “Caspase 3 activation in Farage cells” value was “promotes caspase 3 activation in a dose and time dependent manner”. Moreover, the “Mitochondrial membrane potential in Farage cells (TMRE)” value in data set [9] is “reduces mitochondrial membrane potential in a dose and time dependent manner”. Also, in data set [10] (1 μM, 2 h), the “Mitochondrial aspect ratio in WT MEFs” value was “increased mitochondrial aspect ratio”. The EC50 in data set [10] (read-out: EC50 for inducing fusion (Mito AR)) was found to be 75 nM. Moreover, the “Viability of MEFs” value in [11] was “did not reduce viability”. Also, in [12], the “ATP production, WT MEFs” value is given as “increases ATP production”; the “Basal and maximal oxygen consumption rate (OCR), WT MEFs” value is “increases basal and maximal oxygen consumption rate (OCR)”. Further, the “Population of MEFs positive to caspase 3 activation” value in data set [13] is “reduced significantly”.

The values are drawn from US11813268B2, “Mitofusin activators and uses thereof” (Albert Einstein College of Medicine, priority 2017, dated 2023).
